Results: a melting point compilation (Tetko et al.)
Peptide text beside a SMILES is read from it.

With COc1ccccc1-c1ccc(C=C2C(=O)NC(=S)NC2=O)o1 the melting point was 235 °C.
Work on COC(=O)c1ccc2c(c1)CC1(CCC(c3ccc(C(C)(C)C)cc3)CC1)C2 (stereo unspecified) yielded a melting point of 118 °C.
CCOc1ccc(OC(=O)c2ccccc2)cc1 gave a melting point of 104 °C.
In the case of CSc1nc(N)nc(-c2ccccn2)n1, the melting point was 193 to 196 °C.
COC(=O)C(=O)C1CCc2cc(OC)ccc2C1=O (stereo unspecified) showed a melting point of 71 °C.
Compound O=C(c1ccccc1)c1c(-c2ccccc2)n(C(=O)c2ccccc2)c2cc([N+](=O)[O-])ccc12 has a melting point of 204 °C.
Work on N[C@@H](CC(=O)O)C(=O)N[C@@H](Cc1ccccc1)C(=O)O (H-Asp-Phe-OH) yielded a melting point of 236 to 239 °C.
Work on O=C(c1ccc(F)cc1)[C@H]1CCCC[C@H]1C(=O)O (relative stereo) yielded a melting point of 136 to 139 °C.
O=C(O)/C=C/Cl showed a melting point of 82 °C.
With S=C(NCC(c1ccccc1)c1ccccc1)Nc1ccccc1 the melting point was 171 °C.
Work on CCOC(=O)C(Cl)=NNc1ccccc1 yielded a melting point of 77 to 80 °C.
With C1=CCc2ccccc2C1 the melting point was 25 °C.
CC(C)(C)NCCO gave a melting point of 44 °C.
With Brc1cc2c(cc1Br)Oc1cc(Br)c(Br)cc1O2 the melting point was 334 °C.
CCCCCCOC(=O)CCC gave a melting point of -78 °C.
In the case of Cc1cc(C)c([N+](=O)[O-])c(C)c1[N+](=O)[O-], the melting point was 85.3 °C.
CC(C)(C)c1ccncc1 showed a melting point of -41 °C.
In the case of COc1c(C(=O)O)csc1Cl, the melting point was 140 °C.
For COc1cc(NC(=S)Nc2ccc(Br)cc2)c(C(c2ccc(C)o2)c2ccc(C)o2)cc1OC, the melting point was 167 °C.
Clc1c(Cl)c(Cl)c2nccnc2c1Cl gave a melting point of 190 °C.
O=Cc1ccc(-n2ccnc2)cc1 showed a melting point of 142 to 145 °C.
For O=S(=O)(Cl)c1ccc(C(F)(F)F)cc1Cl, the melting point was 37 °C.
With O=C1c2ccccc2CC1Br (stereo unspecified) the melting point was 39 to 44 °C.
In the case of CC(=O)OC1CCC2(C)C(CCC3C2CCC2(C)C3CCC(=O)C2(C)OC(C)=O)C1 (stereo unspecified), the melting point was 195 to 207 °C.
In the case of Cc1cc(Br)ccc1S(=O)(=O)Cl, the melting point was 65 to 67 °C.
Compound O=C(Nc1nnc(-c2ccc(Cl)cc2)o1)c1ccc(F)cc1 has a melting point of 282 to 284 °C.
Work on O=S(=O)(c1ccc(Cl)cc1)n1cccc1 yielded a melting point of 116 to 118 °C.
In the case of ClCc1csc(-c2ccccc2)n1, the melting point was 49 to 50 °C.
With N#CC(=CNc1ccccn1)C(=O)c1ccccc1 the melting point was 153 to 154 °C.
With Cn1c(=O)c(C2=NNC(=O)C2=NNc2cccc(Cl)c2)c(O)c2ccccc21 the melting point was 222 °C.
With Brc1ccc(-c2cccnc2)nc1 the melting point was 77 °C.
Work on O=C(CBr)c1ccc(Cl)c([N+](=O)[O-])c1 yielded a melting point of 83 to 85 °C.
In the case of CCOP(=S)(OCC)SC(CCl)N1C(=O)c2ccccc2C1=O (stereo unspecified), the melting point was 68 °C.
For COc1ccc(OC)c(C(=O)O)c1, the melting point was 77 °C.
CCC(C)Cn1c(O)nnc1S (stereo unspecified) showed a melting point of 147 to 151 °C.
In the case of O=[N+]([O-])c1ccccc1OCCBr, the melting point was 40 to 44 °C.
FC(F)(F)c1nnc(S)n1/N=C/c1ccc2c(c1)OCO2 showed a melting point of 221 °C.
Work on Oc1cccc(I)c1 yielded a melting point of 118 °C.
CCCC(O)C=CC=CC=CC#CC#CCCCO (stereo unspecified) showed a melting point of 54 °C.
For CCc1nc2ccccc2[nH]1, the melting point was 175 °C.
Work on CC12CCC(=O)C=C1CCC1C2CCC2(C)CCCC12O (stereo unspecified) yielded a melting point of 180 °C.
Cc1ccncc1/C=N/N(C)C gave a melting point of 50 °C.
O=[N+]([O-])c1ccccc1/C(O)=C(/C(=N\O)c1ccccc1)c1ccccc1 gave a melting point of 164 °C.
Work on C=CC1CC2C=CC1C2 (stereo unspecified) yielded a melting point of -80 °C.
In the case of Nc1cccc(-c2cccnc2)c1, the melting point was 74 to 78 °C.
O=C(O)c1ccc(C(=O)O)c([N+](=O)[O-])c1 showed a melting point of 270 to 272 °C.
N#Cc1coc2ccccc2c1=O showed a melting point of 174 to 178 °C.
For O=C(NCCCCCCO)OCC1c2ccccc2-c2ccccc21, the melting point was 119 to 120 °C.
In the case of O=C1OC(C2COC3(CCCCC3)O2)C2OC3(CCCCC3)OC12 (stereo unspecified), the melting point was 110 to 113 °C.
For Nc1nc(-c2ccc(Br)cc2)cc(C(F)(F)F)n1, the melting point was 216 to 218 °C.
For COc1cc(N=C=S)cc(OC)c1OC, the melting point was 65 °C.
C[C@]12CCC(=O)C=C1C(=O)C[C@@H]1[C@@H]2CC[C@@]2(C)[C@H]1CCC21OCCO1 gave a melting point of 162 °C.
In the case of Cc1cc(C)c(P(c2c(C)cc(C)cc2C)c2c(C)cc(C)cc2C)c(C)c1, the melting point was 187 °C.
In the case of CCCc1nc(OC(C)=O)n(-c2ccccc2)n1, the melting point was 84 °C.
Compound CCCCCCCCCCOc1ccc(C(=O)O)cc1 has a melting point of 114 °C.
In the case of CC(C)(C)N=O, the melting point was 81 to 83 °C.
In the case of FC(F)(F)c1nn(CN2CCOCC2)c(=S)n1/N=C/c1ccc2c(c1)OCO2, the melting point was 183 °C.
CC(C)Cc1ccc(CC(=O)O)cc1 showed a melting point of 86 °C.
Work on O=C(C1CCCNC1)N1CCCC1 (stereo unspecified) yielded a melting point of 57 to 64 °C.
For CC(C)=CCCC(C)C1=C(O)C(=O)C(C)=CC1=O (stereo unspecified), the melting point was 104 °C.
COc1ccccc1P(c1ccccc1OC)c1ccccc1OC gave a melting point of 204 to 208 °C.
